Measured values published in patent US20090179638A1, “ASSAY FOR IDENTIFYING INHIBITORS OF NEURONAL APOPTOTIC PATHWAYS” (AEGERA THERAPEUTICS INC., priority 2006, published 2009).

Experiments:
[1] = tested on: PC12 cells; experiment: PC12 cell death induced by chemotherapeutic drugs (LDH assay); assay type: cell-based
Method: FIG. 3 is a graph showing that compound 1 inhibits JNK-dependent cell death induced by chemotherapeutic drugs. Cells were infected with AdNRG at 5 MOI or treated with paclitaxel, cisplatin, or doxorubicin (Dox) at the indicated μM concentrations. At the time of treatment, compound 1 or vehicle was added to the cultures, as indicated. After 40 hours, cells were assayed for death using the LDH assay. Results are normalized relative to those obtained with 1% Triton (Tx), and represent the mean±standard deviation of a representative experiment performed in triplicate (*=P<0.01 relative to 0 μM compound 1 for each insult). Experiments were performed twice with identical results.
The ability of compound 1 to inhibit apoptosis in response to a variety of other insults, including the DNA damaging agent, cisplatin, the microtubule disruptor, paclitaxel, and doxorubicin, a topoisomerase inhibitor was investigated. […] Cisplatin-induced apoptosis has been reported to be JNK-dependent when used at low concentrations (10 μM), but JNK-independent at concentrations >25 μM (Sanchez-Perez and Perona, 1999) and consistent with this, compound 1 protected cells exposed to 10 μM, but not 50 μM, cisplatin (FIG. 3).
Cell culture, infection, transfection and immunoblotting. Sympathetic neurons were maintained and deprived of NGF as previously described (Bamji et al., 1998; Ma et al., 1992). PC12^rtTA cells were maintained and infected as previously described (Majdan et al., 1997; Salehi et al., 2002); for NRAGE, […] doxycycline was added to all plates at time of infection. Wildtype and HSF1 nullizygous immortalized mouse embryonic fibroblasts (MEFs) were maintained in DMEM containing 10% fetal calf serum, 1 μM β-mercaptoethanol, 1% non-essential amino acids, 1% L-glutamine, 1% antimycotic solution and 1% sodium pyruvate (all from GibcoBRL). Sympathetic neuron survival was assessed using the MTS assay according to the manufacturer's instructions (Promega). Analysis of PC12 cell death was determined using a lactate dehydrogenase (LDH) assay (Roche) as per the manufacturer's instructions. Transfections using plasmids or RNAi were performed using Lipofectamine 2000. Immunoblotting was performed as previously described (Majdan et al., 1997; Salehi et al., 2002).

[2] = tested on: HSP70; experiment: HSP70 levels in SCG neurons (immunoblot); assay type: cell-based; conditions: 18 hours
Method: To address this, SCG neurons were treated with compound 1 for 18 hours then lysed and assessed for HSP70 levels by immunoblot. Uninfected PC12rtTA cells were treated in a similar manner. […] To test if the accumulation of HSP70 induced by compound 1 reflected increased steady state levels of its mRNA, RNA was isolated from PC12 cells treated with increasing concentrations of compound 1 for 18 hours and the cell lysates subjected to semi-quantitative rtPCR. […] HSP protein levels were also assessed in PC12rtTA cells infected with AdLacZ, Adp75, or AdNRG, and at the same time, exposed to compound 1.

[3] = tested on: HSP70, HSP25, HSP90 mRNA; experiment: semi-quantitative rtPCR of HSP mRNA in PC12 cells; assay type: cell-based, rat; conditions: 18 hours
Method: FIGS. 4A-4C are photographs of Western blots which illustrate that compound 1 treatment of PC12 cells induces expression of HSP70. A: PC12 cells were infected with 5 MOI of AdNRG (NRG) or AdLacZ (LacZ) as indicated. Cells were left untreated (0) or treated with 40 μM compound 1 at time of infection (30), one hour before lysis (1), or at both times (30+1). Cells were lysed thirty hours after infection, normalized for protein content, and analyzed for levels of phospho-Ser^63 c-Jun and total c-Jun, total JNK, IkBα, and NRAGE by immunoblotting. Lysates from untreated cells are indicated by ‘−’. B: PC12 cells were treated with the indicated concentrations of compound 1 for 18 hours and then lysed, normalized for protein content, and analyzed for levels of HSP70 by immunoblotting. Lysates from untreated cells are indicated by ‘−’. C: RNA isolated from PC12^rtTA cells treated with increasing concentrations of compound 1 for 18 hours was analyzed by rtPCR using primers specific to HSP70, HSP25, HSP90 or actin, as indicated. […] Thirty hours after infection, cells were lysed, normalized for protein content, and analyzed for levels of c-Jun phosphorylation, HSP70, HSP25, HSP40, NRAGE, p75NTR, JNK-1 and IkBα, as indicated.
To address this, SCG neurons were treated with compound 1 for 18 hours then lysed and assessed for HSP70 levels by immunoblot. […]

[4] = tested on: HSP70 and HSP25; experiment: Endogenous HSP protein expression in wild-type or HSF1 null MEFs (immunoblot); assay type: cell-based, mouse
Method: FIGS. 5B and 5C are photographs of Western blots showing that compound 1 binds HSP90 and causes HSF1-dependent expression of HSP70 and HSP25. A: Wild-type or HSF1 null MEFs were transfected with pGL3B-HSP70, an HSP70 promoter reporter construct, or parental vector (pGL3B), then treated with 40 μM of compound 1 for 24 hours and analyzed for luciferase content as described in Materials and Methods (*=P<0.005 relative to 0 compound 1; **=P<0.005 relative to wild-type MEFs treated with 40 uM compound 1. B: Wild-type or HSF1 null MEFs were treated with increasing concentrations of compound 1 for 24 hours, cells were lysed, normalized for protein content, and analyzed for levels of HSP70, HSP40, and HSP25 as indicated. C: Compound 6-conjugated Sepharose beads were incubated with purified HSP90 for 2 hours, washed, and levels of bound HSP90 were analyzed by immunoblot. Con=Control beads, Alone=Compound 6-beads alone, Comp=[…]+competing compound 1 (at 80 μM). Experiments in Panel A-C were performed three times with identical results.
Induction of cell stress results in the interaction of HSP90 with misfolded proteins and disrupts its association with HSF1, allowing it to bind and activate HSP70 and HSP25 promoters (Sanchez-Perez and Perona, 1999). […]

Question: Which results are given for `NS(=O)(=O)c1nn2cc(-c3ccccc3)nc2s1` [Compound 1]?
Answer: protection against cisplatin-induced cell death ([1]; cisplatin 10 μM): protected; protection against cisplatin-induced cell death ([1]; cisplatin 50 μM): not 50 μM; protection against doxorubicin-induced cell death ([1]; doxorubicin): did not offer any protection; apoptosis induced by paclitaxel ([1]; paclitaxel 10 μM and 50 μM): effectively reduced; cellular HSP70 levels [2]: large increase; HSP25 and HSP70 mRNA levels [3]: increased levels; HSP90 or actin mRNA levels [3]: no effect; expression of endogenous HSP70 and HSP25 ([4]; MEFs lacking HSF1, 24 hours): not in MEFs lacking HSF1; expression of endogenous HSP70 and HSP25 ([4]; wild type MEFs, 24 hours): strong induction
